Experimental data taken from patent US20230382924A1, “MODULATORS OF CYSTIC FIBROSIS TRANSMEMBRANE CONDUCTANCE REGULATOR” (VERTEX PHARMACEUTICALS INCORPORATED, priority 2020, published 2023).
Read-outs that look alike come from different tables or passages of the source.

Target: CFTR (Homo sapiens, UniProt P13569)
Assay: Membrane Potential Dye, Enteroid Assay A
Type: cell-based
Conditions: for EC50: read-out: Ent. A EC50
Outline: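 Signal is reported as % Activity relative to a triple CFTR modulator control (3 μM + 3 μM + 300 nM acute). Read-out: membrane potential fluorescence (20 μM methyl oxonol) monitored for 15 min after chloride-free stimulation. Dye loading took 25 min at room temperature in Bath 1 buffer containing CaCC blockers.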

Sequence of CFTR (P13569 with tags, fused parts or gaps DEL508-508): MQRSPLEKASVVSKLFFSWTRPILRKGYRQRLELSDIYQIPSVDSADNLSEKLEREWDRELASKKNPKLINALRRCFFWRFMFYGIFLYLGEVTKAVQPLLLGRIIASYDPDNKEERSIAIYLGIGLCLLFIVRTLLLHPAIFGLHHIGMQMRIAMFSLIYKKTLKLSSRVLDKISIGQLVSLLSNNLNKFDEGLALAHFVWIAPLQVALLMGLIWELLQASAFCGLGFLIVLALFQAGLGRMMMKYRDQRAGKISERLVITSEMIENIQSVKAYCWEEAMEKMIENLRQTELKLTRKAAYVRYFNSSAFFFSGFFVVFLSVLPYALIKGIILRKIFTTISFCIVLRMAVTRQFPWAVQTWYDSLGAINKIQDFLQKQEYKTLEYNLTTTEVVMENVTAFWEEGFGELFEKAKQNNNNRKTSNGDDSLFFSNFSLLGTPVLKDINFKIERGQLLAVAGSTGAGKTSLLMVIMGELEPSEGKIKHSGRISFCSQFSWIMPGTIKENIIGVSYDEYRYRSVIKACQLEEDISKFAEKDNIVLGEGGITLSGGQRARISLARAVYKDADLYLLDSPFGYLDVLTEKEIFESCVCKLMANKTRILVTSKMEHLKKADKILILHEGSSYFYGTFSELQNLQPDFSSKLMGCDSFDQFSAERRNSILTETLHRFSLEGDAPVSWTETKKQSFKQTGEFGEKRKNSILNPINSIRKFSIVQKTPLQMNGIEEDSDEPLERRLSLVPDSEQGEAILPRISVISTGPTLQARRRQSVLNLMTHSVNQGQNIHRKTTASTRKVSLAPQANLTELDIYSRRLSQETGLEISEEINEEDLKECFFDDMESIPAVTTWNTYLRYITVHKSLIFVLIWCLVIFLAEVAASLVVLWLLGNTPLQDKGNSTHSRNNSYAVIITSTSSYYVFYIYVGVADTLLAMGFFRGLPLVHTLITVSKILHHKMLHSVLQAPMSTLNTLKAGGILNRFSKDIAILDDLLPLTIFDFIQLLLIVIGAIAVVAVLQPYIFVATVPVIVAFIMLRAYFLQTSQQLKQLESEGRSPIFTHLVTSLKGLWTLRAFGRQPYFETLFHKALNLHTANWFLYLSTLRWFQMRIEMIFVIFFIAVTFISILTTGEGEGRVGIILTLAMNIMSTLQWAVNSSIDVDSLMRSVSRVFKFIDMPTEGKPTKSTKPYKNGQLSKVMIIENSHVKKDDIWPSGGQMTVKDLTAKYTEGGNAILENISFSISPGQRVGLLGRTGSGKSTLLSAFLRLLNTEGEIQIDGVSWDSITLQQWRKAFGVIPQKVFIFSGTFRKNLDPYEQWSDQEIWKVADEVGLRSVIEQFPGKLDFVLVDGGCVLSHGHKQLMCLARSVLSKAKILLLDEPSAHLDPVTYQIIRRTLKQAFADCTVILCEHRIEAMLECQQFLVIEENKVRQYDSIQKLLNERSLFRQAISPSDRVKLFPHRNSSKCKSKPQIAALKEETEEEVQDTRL

SMILES	Ent. A Max Activity (Table 8)	Ent. A Max Activity (Table 9)	EC50 (Table 9)	EC50 (Table 8)	further results
Cc1cccc(C)c1-c1cc2nc(n1)NS(=O)(=O)c1cccc(c1)C(=O)NCC1(CCN(CCc3ccccc3)CC1)CO2 [Compound 444]	–	–	–	–	Ent. A Max Activity (Enteroid Assay A): ++ (++ is 30-60%); EC50 (Enteroid Assay A): 3 to 30 µM
Cc1ccccc1[C@H]1CNC(=O)c2cccc(c2)S(=O)(=O)Nc2nc(cc(-c3c(C)cccc3C)n2)O1 (stereo in doubt) [Compound 277]	+ (+ is <30%)	–	–	–	–
Cc1cccc(C)c1-c1cc2nc(n1)NS(=O)(=O)c1cccc(c1)C(=O)N[C@@H]1CCN(C(=O)OC(C)(C)C)C[C@H]1O2 (single isomer, unassigned) [Compound 87, tert-butyl 20-(2,6-dimethylphenyl)-10,16,16-trioxo-2-oxa-16λ^6-thia-5,9,17,19,22-pentaazatetracyclo[16.3.1.111,15.03,8]tricosa-1(21),11(23),12,14,18(22),19-hexaene-5-carboxylate]	–	+++ (+++ is >60%)	1 to 3 µM	–	–
Cc1cccc(C)c1-c1cc2nc(n1)NS(=O)(=O)c1cccc(c1)C(=O)N[C@@H](c1ccccc1)CCO2 [Compound 290]	–	–	–	1 to 3 µM	–
Cc1cccc(C)c1-c1cc2nc(n1)NS(=O)(=O)c1cccc(c1)C(=O)N[C@H](CC1CCCCC1)[C@@H](C1CC1)O2 [Compound 131]	–	+++ (+++ is >60%)	< 1 µM	–	–
Cc1cccc(C)c1-c1cc2nc(n1)NS(=O)(=O)c1cccc(c1)C(=O)NCC(CC(C)C)O2 (stereo not shown) [Compound 490]	–	–	–	–	Ent. A Max Activity (Enteroid Assay A): +++ (+++ is >600%); EC50 (Enteroid Assay A): 1 to 3 µM
CC(C)C[C@@H]1COc2cc(C3CCOCC3)nc(n2)NS(=O)(=O)c2cccc(c2)C(=O)N1 [Compound 314]	+ (+ is <30%)	–	–	3 to 30 µM	–
Cc1cnn(C)c1-c1cc2nc(n1)NS(=O)(=O)c1cccc(c1)C(=O)N[C@H](CC(C)C)CO2 [Compound 179]	–	++ (++ is 30-60%)	3 to 30 µM	–	–
Cc1cccc(C)c1-c1cc2nc(n1)NS(=O)(=O)c1cccc(c1)C(=O)NCC(c1ccc3c(c1)C(C)(C)CCC3(C)C)O2 (stereo not shown) [Compound 117]	+++ (+++ is >60%)	–	–	< 1 µM	–
Cc1cccc(C)c1-c1cc2nc(n1)NS(=O)(=O)c1cccc(c1)C(=O)NCC(c1ccc(CC[Si](C)(C)C)cc1)O2 (stereo not shown) [Compound 127]	–	–	< 1 µM	–	–
Cc1cccc(C)c1-c1cc2nc(n1)NS(=O)(=O)c1cccc(c1)C(=O)N[C@H](CC1CCCCC1)[C@@H](c1ccc(C(C)(C)C)cc1)O2 [Compound 154]	+++ (+++ is >60%)	–	–	< 1 µM	–
Cc1cccc(C)c1-c1cc2nc(n1)NS(=O)(=O)c1ccccc1C(=O)NC(CC(C)C)CO2 (stereo not shown) [Compound 223]	–	+ (+ is <30%)	–	–	–
CC(C)C[C@@H]1COc2cc(-c3c(C(C)C)cccc3C(C)C)nc(n2)NS(=O)(=O)c2cccc(c2)C(=O)N1 [Compound 99, (11R)-6-(2,6-diisopropylphenyl)-11-isobutyl-2,2-dioxo-9-oxa-2λ^6-thia-3,5,12,19-tetrazatricyclo[12.3.1.14,8]nonadeca-1(18),4,6,8(19),14,16-hexaen-13-one]	+++ (+++ is >60%)	–	–	< 1 µM	–
Cc1cccc(C)c1-c1cc2nc(n1)NS(=O)(=O)c1cccc(c1)C(=O)NCC(c1cccc(C#N)c1)O2 (stereo not shown) [Compound 252]	–	–	–	3 to 30 µM	–
Cc1cccc(C)c1-c1cc2nc(n1)NS(=O)(=O)c1cccc(c1)CN[C@H](CC1CCCCC1)CO2 [Compound 286]	+ (+ is <30%)	–	–	3 to 30 µM	–
Cc1cccc(C)c1-c1cc2nc(n1)NS(=O)(=O)c1cccc(c1)C(=O)NCC(c1ccc(C#N)cc1)O2 (stereo not shown) [Compound 250]	+++ (+++ is >60%)	–	–	< 1 µM	–
CC(C)C[C@@H]1COc2cc(-n3nccc3C(C)C)nc(n2)NS(=O)(=O)c2cccc(c2)C(=O)N1 [Compound 307]	+ (+ is <30%)	–	–	–	–
Cc1cccc(C)c1-c1cc2nc(n1)NS(=O)(=O)c1cccc(c1)C(=O)N[C@H](CC(C)C)CCO2 [Compound 225]	–	+++ (+++ is >60%)	< 1 µM	–	–
CC(C)C[C@@H]1COc2cc(C3=CC(C)CC3(C)C)nc(n2)NS(=O)(=O)c2cccc(c2)C(=O)N1 (stereo partly shown) [Compound 320]	–	–	–	–	Ent. A Max Activity (Enteroid Assay A): ++ (++ is 30-60%); EC50 (Enteroid Assay A): < 1 µM
Cc1cccc(C)c1-c1cc2nc(n1)NS(=O)(=O)c1cccc(c1)C(=O)NC(C)(CC(C)C)CO2 (stereo not shown) [Compound 176]	–	+++ (+++ is >60%)	< 1 µM	–	–

SMILES	Ent. A Max Activity (Table 8)	Ent. A Max Activity (Table 9)	EC50 (Table 9)	EC50 (Table 8)	further results
Cc1cccc(C)c1-c1cc2nc(n1)NS(=O)(=O)c1cccc(c1)C(=O)NC[C@@H](c1ccc(C3CC3)cc1)O2 [Compound 260]	–	+++ (+++ is >60%)	< 1 µM	–	–
Cc1cccc(C)c1-c1cc2nc(n1)NS(=O)(=O)c1cccc(c1)C(=O)NCC(c1ccc(CCC(C)(C)C)cc1)O2 (stereo not shown) [Compound 24, 10-[4-(3,3-dimethylbutyl)phenyl]-6-(2,6-dimethylphenyl)-2,2-dioxo-9-oxa-2λ^6-thia-3,5,12,19-tetrazatricyclo[12.3.1.14,8]nonadeca-1(18),4(19),5,7,14,16-hexaen-13-one]	–	+++ (+++ is >60%)	< 1 µM	–	–
Cc1cccc(C)c1-c1cc2nc(n1)NS(=O)(=O)c1cccc(c1)C(=O)NCC(c1ccc(C3(C)CC3)cc1)O2 (stereo not shown) [Compound 265]	–	++ (++ is 30-60%)	< 1 µM	–	–
CC(C)C[C@@H]1COc2cc(C3CCCCC3(C)C)nc(n2)NS(=O)(=O)c2cccc(c2)C(=O)N1 (stereo partly drawn) [Compound 68, (11R)-6-(2,2-Dimethylcyclohexyl)-11-isobutyl-2,2-dioxo-9-oxa-2λ^6-thia-3,5,12,19-tetrazatricyclo[12.3.1.14,8]nonadeca-1(18),4,6,8(19),14,16-hexaen-13-one]	–	+++ (+++ is >60%)	1 to 3 µM	–	–
Cc1cccc(C)c1-c1cc2nc(n1)NS(=O)(=O)c1cccc(c1)C(=O)NCC(c1ccccc1)CO2 (stereo not shown) [Compound 201]	–	–	–	–	EC50 (Enteroid Assay A): < 1 µM
Cc1cccc(C)c1-c1cc2nc(n1)NS(=O)(=O)c1cc(cc(C3CC3)c1)C(=O)N[C@H](CC(C)C)CO2 [Compound 136]	+ (+ is <30%)	–	–	–	–
CC(C)C[C@@H]1COc2cc(C3C(C)CCCC3C)nc(n2)NS(=O)(=O)c2cccc(c2)C(=O)N1 (stereo partly shown) [Compound 300]	–	–	–	< 1 µM	–
Cc1cccc(C)c1-c1cc2nc(n1)NS(=O)(=O)[C@H]1CC[C@H]1C(=O)N[C@H](CC(C)C)CO2 (single isomer, unassigned) [Compound 71]	–	+ (+ is <30%)	–	–	–
Cc1cccc(C)c1-c1cc2nc(n1)NS(=O)(=O)c1cccc(c1)C(=O)N[C@@H]1CCN(C(=O)CC(C)(C)C)C[C@@H]1O2 (stereo in doubt) [Compound 380]	–	++ (++ is 30-60%)	3 to 30 µM	–	–
Cc1cccc(C)c1-c1cc2nc(n1)NS(=O)(=O)c1cccc(c1)C(=O)NCC(c1ccc(OC(C)C)cc1)O2 (stereo not shown) [Compound 249]	–	–	–	< 1 µM	–
Cc1cc(C2CNC(=O)c3cccc(c3)S(=O)(=O)Nc3nc(cc(-c4c(C)cccc4C)n3)O2)cc2c1OC(C)(C)C2 (stereo not shown) [Compound 119]	+ (+ is <30%)	–	–	–	–
Cc1cccc(C)c1-c1cc2nc(n1)NS(=O)(=O)c1cccc(c1)C(=O)N[C@H](c1ccccc1)CO2 [Compound 352]	–	–	–	–	Ent. A Max Activity (Enteroid Assay A): +++ (+++ is >600%); EC50 (Enteroid Assay A): < 1 µM
CC(C)CCc1ccccc1-c1cc2nc(n1)NS(=O)(=O)c1cccc(c1)C(=O)N[C@H](CC(C)C)CO2 [Compound 104, (11R)-6-[2-(3-Methylbutyl)phenyl]-11-(2-methylpropyl)-9-oxa-2λ^6-thia-3,5,12,19-tetraazatricyclo[12.3.1.14,8]nonadeca-1(17),4,6,8(19),14(18),15-hexaene-2,2,13-trione]	–	–	–	–	Ent. A Max Activity (Enteroid Assay A): ++ (++ is 30-60%); EC50 (Enteroid Assay A): < 1 µM
Cc1cccc(C)c1-c1cc2nc(n1)NS(=O)(=O)c1cccc(c1)C(=O)N[C@@H]1CN(CCC3(C(F)(F)F)CC3)CC[C@H]1O2 [Compound 58, (3R,8R)-20-(2,6-Dimethylphenyl)-6-{2-[1-(trifluoromethyl)cyclopropyl]ethyl}-2-oxa-16λ^6-thia-6,9,17,19,22-pentaazatetracyclo[16.3.1.111,15.03,8]tricosa-1(21),11,13,15(23),18(22),19-hexaene-10,16,16-trione]	–	+++ (+++ is >60%)	< 1 µM	–	–
CC(C)C[C@@H]1COc2cc(-c3ccccc3OC(F)(F)F)nc(n2)NS(=O)(=O)c2cccc(c2)C(=O)N1 [Compound 103, (11R)-11-(2-Methylpropyl)-6-[2-(trifluoromethoxy)phenyl]-9-oxa-2λ^6-thia-3,5,12,19-tetraazatricyclo[12.3.1.14,8]nonadeca-1(17),4(19),5,7,14(18),15-hexaene-2,2,13-trione]	–	–	–	–	Ent. A Max Activity (Enteroid Assay A): +++ (+++ is >600%); EC50 (Enteroid Assay A): < 1 µM
Cc1cccc(C)c1-c1cc2nc(n1)NS(=O)(=O)c1cccc(c1)C(=O)N[C@@H](CCC(F)(F)F)CO2 (stereo in doubt) [Compound 189]	+ (+ is <30%)	–	–	1 to 3 µM	–
Cc1cccc(C)c1-c1cc2nc(n1)NS(=O)(=O)c1cccc(c1)C(=O)NC1CC(CN(CCC(C)(C)C3CC3)C1)O2 (stereo not shown) [Compound 195]	–	–	–	–	EC50 (Enteroid Assay A): < 1 µM
CCC[C@H]1NC(=O)c2cccc(c2)S(=O)(=O)Nc2nc(cc(-c3c(C)cccc3C)n2)O[C@@H]1c1ccc(C(C)(C)C)cc1 [Compound 227]	–	+++ (+++ is >60%)	< 1 µM	–	–
Cc1cccc(C)c1-c1cc2nc(n1)NS(=O)(=O)c1cccc(c1)C(=O)NC1CC(CN(CCC(C)(C)C)C1)O2 (single isomer, unassigned) [Compound 79, 5-(3,3-dimethylbutyl)-19-(2,6-dimethylphenyl)-2-oxa-15λ^6-thia-5,8,16,18,21-pentaazatetracyclo[15.3.1.13,7.110,14]tricosa-1(20),10,12,14(22),17(21),18-hexaene-9,15,15-trione]	–	–	–	–	Ent. A Max Activity (Enteroid Assay A): ++ (++ is 30-60%); EC50 (Enteroid Assay A): < 1 µM
Cc1cccc(C)c1-c1cc2nc(n1)NS(=O)(=O)c1cccc(c1)C(=O)NC[C@@H](c1cccc(C(C)(C)C)c1)O2 [Compound 273]	+++ (+++ is >60%)	–	–	< 1 µM	–
